Experimental data as given in ChEMBL document CHEMBL4219034, “Synthesis, antimicrobial activity, structure-activity relationship and cytotoxic studies of a new series of functionalized (Z)-3-(2-oxo-2-substituted ethylidene)-3,4-dihydro-2H-benzo[b][1,4]oxazin-2-ones” (Bioorg Med Chem Lett, 2017).
Converted amounts (≈) assume the structure as drawn. The source made the active and inactive calls. The calls are words filed in the database; no cut-off is given here.

Experiments:
Format in all cases: functional
Streptomyces griseus [1] = test: Antibacterial activity against Streptomyces griseus MTCC 4734 incubated for 24 hrs by serial dilution method
Streptomyces griseus [2] = test: Antibacterial activity against Streptomyces griseus MTCC 4734 at 100 ug/ml incubated for 12 hrs by agar disc diffusion assay; conditions: for zone of inhibition at 100 µg/mL: MTCC 4734, 12 h, read-out: IZ
Bacillus subtilis [3] = test: Antibacterial activity against Bacillus subtilis MTCC 10619 incubated for 24 hrs by serial dilution method
Escherichia coli [4] = test: Antibacterial activity against Escherichia coli MTCC 443 at 100 ug/ml incubated for 12 hrs by agar disc diffusion assay; conditions: for zone of inhibition at 100 µg/mL: MTCC 443, 12 h, read-out: IZ
Trichoderma reesei [5] = test: Antifungal activity against Trichoderma reesei ATCC 13631 at 100 ug/ml incubated for 72 hrs by agar disc diffusion assay; conditions: for zone of inhibition at 100 µg/mL: ATCC 13631, 72 h, read-out: IZ
Talaromyces funiculosus [6] = test: Antifungal activity against Penicillium funiculosum ATCC 11797 at 100 ug/ml incubated for 72 hrs by agar disc diffusion assay; conditions: for zone of inhibition at 100 µg/mL: ATCC 11797, 72 h, read-out: IZ
Fusarium oxysporum [7] = test: Antifungal activity against Fusarium oxysporum ATCC 62506 incubated for 24 hrs by serial dilution method
Aspergillus niger [8] = test: Antifungal activity against Aspergillus niger ATCC 9029 incubated for 24 hrs by serial dilution method
Aspergillus niger [9] = test: Antifungal activity against Aspergillus niger ATCC 9029 at 100 ug/ml incubated for 72 hrs by agar disc diffusion assay; conditions: for zone of inhibition at 100 µg/mL: ATCC 9029, 72 h, read-out: IZ
Staphylococcus aureus [10] = test: Antibacterial activity against Staphylococcus aureus MTCC 3381 at 100 ug/ml incubated for 12 hrs by agar disc diffusion assay; conditions: for zone of inhibition at 100 µg/mL: MTCC 3381, 12 h, read-out: IZ
Escherichia coli [11] = test: Antibacterial activity against Escherichia coli MTCC 443 incubated for 24 hrs by serial dilution method
Trichoderma reesei [12] = test: Antifungal activity against Trichoderma reesei ATCC 13631 incubated for 24 hrs by serial dilution method
Fusarium oxysporum [13] = test: Antifungal activity against Fusarium oxysporum ATCC 62506 at 100 ug/ml incubated for 72 hrs by agar disc diffusion assay; conditions: for zone of inhibition at 100 µg/mL: ATCC 62506, 72 h, read-out: IZ
Staphylococcus aureus [14] = test: Antibacterial activity against Staphylococcus aureus MTCC 3381 incubated for 24 hrs by serial dilution method
Talaromyces funiculosus [15] = test: Antifungal activity against Penicillium funiculosum ATCC 11797 incubated for 24 hrs by serial dilution method
Bacillus subtilis [16] = test: Antibacterial activity against Bacillus subtilis MTCC 10619 at 100 ug/ml incubated for 12 hrs by agar disc diffusion assay; conditions: for zone of inhibition at 100 µg/mL: MTCC 10619, 12 h, read-out: IZ

Structure (SMILES)	MIC (Streptomyces griseus [1])	inhibition zone (IZ) (Streptomyces griseus [2])	MIC (Bacillus subtilis [3])	inhibition zone (IZ) (Escherichia coli [4])	inhibition zone (IZ) (Trichoderma reesei [5])	inhibition zone (IZ) (Talaromyces funiculosus [6])	MIC (Fusarium oxysporum [7])	MIC (Aspergillus niger [8])	inhibition zone (IZ) (Aspergillus niger [9])	inhibition zone (IZ) (Staphylococcus aureus [10])	MIC (Escherichia coli [11])	MIC (Trichoderma reesei [12])	inhibition zone (IZ) (Fusarium oxysporum [13])	MIC (Staphylococcus aureus [14])	MIC (Talaromyces funiculosus [15])	inhibition zone (IZ) (Bacillus subtilis [16])	zone of inhibition at 100 µg/mL (Escherichia coli [4]) [mm]	MIC (Escherichia coli [11]; MTCC 443, 24 h) [µg/mL]	MIC (Streptomyces griseus [1]; MTCC 4734, 24 h) [µg/mL]	zone of inhibition at 100 µg/mL (Streptomyces griseus [2]) [mm]	other results
O=C1Oc2ccc(Cl)cc2N/C1=C\C(=O)c1cccc2ccccc12	inactive	inactive	inactive	inactive	inactive	inactive	inactive	inactive	inactive	inactive	inactive	inactive	inactive	inactive	inactive	inactive					
O=C1Oc2ccccc2N/C1=C\C(=O)c1ccc(-c2ccccc2)cc1	inactive	inactive	inactive		inactive		inactive			inactive		inactive	inactive	inactive		inactive	14	25 (≈ 73.2 µM)			zone of inhibition at 100 µg/mL (Talaromyces funiculosus [6]): 14 mm; MIC (Aspergillus niger [8]; ATCC 9029, 24 h): 100 µg/mL (≈ 293 µM); zone of inhibition at 100 µg/mL (Aspergillus niger [9]): 4 mm; MIC (Talaromyces funiculosus [15]; ATCC 11797, 24 h): 25 µg/mL (≈ 73.2 µM)
O=C(N[C@H](CO)[C@H](O)c1ccc([N+](=O)[O-])cc1)C(Cl)Cl [CHLORAMPHENICOL]																	32	6.25 (≈ 19.3 µM)	3.12 (≈ 9.67 µM)	28	MIC (Bacillus subtilis [3]; MTCC 10619, 24 h): 6.25 µg/mL (≈ 19.3 µM); zone of inhibition at 100 µg/mL (Staphylococcus aureus [10]): 22 mm; MIC (Staphylococcus aureus [14]; MTCC 3381, 24 h): 6.25 µg/mL (≈ 19.3 µM); zone of inhibition at 100 µg/mL (Bacillus subtilis [16]): 26 mm
O=C1Oc2ccccc2N/C1=C\C(=O)C1CC1	inactive	inactive	inactive			inactive		inactive	inactive						inactive	inactive	10	50 (≈ 218 µM)			zone of inhibition at 100 µg/mL (Trichoderma reesei [5]): 4 mm; MIC (Fusarium oxysporum [7]; ATCC 62506, 24 h): 100 µg/mL (≈ 436 µM); zone of inhibition at 100 µg/mL (Staphylococcus aureus [10]): 4 mm; MIC (Trichoderma reesei [12]; ATCC 13631, 24 h): 100 µg/mL (≈ 436 µM); zone of inhibition at 100 µg/mL (Fusarium oxysporum [13]): 8 mm; MIC (Staphylococcus aureus [14]; MTCC 3381, 24 h): 100 µg/mL (≈ 436 µM)
CC1(C)S[C@@H]2[C@H](NC(=O)[C@H](N)c3ccccc3)C(=O)N2[C@H]1C(=O)O [AMPICILLIN]																	24	12.5 (≈ 35.8 µM)	12.5 (≈ 35.8 µM)	20	MIC (Bacillus subtilis [3]; MTCC 10619, 24 h): 25 µg/mL (≈ 71.5 µM); zone of inhibition at 100 µg/mL (Staphylococcus aureus [10]): 11 mm; MIC (Staphylococcus aureus [14]; MTCC 3381, 24 h): 12.5 µg/mL (≈ 35.8 µM); zone of inhibition at 100 µg/mL (Bacillus subtilis [16]): 18 mm
O=C1Oc2ccc(Cl)cc2N/C1=C\C(=O)c1ccc(C2CCCCC2)cc1			inactive	inactive		inactive				inactive	inactive			inactive	inactive	inactive			100 (≈ 262 µM)	6	zone of inhibition at 100 µg/mL (Trichoderma reesei [5]): 16 mm; MIC (Fusarium oxysporum [7]; ATCC 62506, 24 h): 25 µg/mL (≈ 65.5 µM); MIC (Aspergillus niger [8]; ATCC 9029, 24 h): 25 µg/mL (≈ 65.5 µM); zone of inhibition at 100 µg/mL (Aspergillus niger [9]): 10 mm; MIC (Trichoderma reesei [12]; ATCC 13631, 24 h): 25 µg/mL (≈ 65.5 µM); zone of inhibition at 100 µg/mL (Fusarium oxysporum [13]): 14 mm
CC(=O)N1CCN(c2ccc(OCC3COC(Cn4ccnc4)(c4ccc(Cl)cc4Cl)O3)cc2)CC1 (stereo unspecified) [KETOCONAZOLE]																					zone of inhibition at 100 µg/mL (Trichoderma reesei [5]): 24 mm; zone of inhibition at 100 µg/mL (Talaromyces funiculosus [6]): 22 mm; MIC (Fusarium oxysporum [7]; ATCC 62506, 24 h): 12.5 µg/mL (≈ 23.5 µM); MIC (Aspergillus niger [8]; ATCC 9029, 24 h): 12.5 µg/mL (≈ 23.5 µM); zone of inhibition at 100 µg/mL (Aspergillus niger [9]): 18 mm; MIC (Trichoderma reesei [12]; ATCC 13631, 24 h): 25 µg/mL (≈ 47 µM); zone of inhibition at 100 µg/mL (Fusarium oxysporum [13]): 20 mm; MIC (Talaromyces funiculosus [15]; ATCC 11797, 24 h): 25 µg/mL (≈ 47 µM)
O=C1Oc2ccc(Cl)cc2N/C1=C\C(=O)c1ccc(-c2ccccc2)cc1	inactive	inactive	inactive	inactive	inactive		inactive			inactive	inactive	inactive	inactive	inactive		inactive					zone of inhibition at 100 µg/mL (Talaromyces funiculosus [6]): 12 mm; MIC (Aspergillus niger [8]; ATCC 9029, 24 h): 25 µg/mL (≈ 66.5 µM); zone of inhibition at 100 µg/mL (Aspergillus niger [9]): 8 mm; MIC (Talaromyces funiculosus [15]; ATCC 11797, 24 h): 25 µg/mL (≈ 66.5 µM)
Cc1ccc2c(c1)N/C(=C\C(=O)c1cccc3ccccc13)C(=O)O2	inactive	inactive	inactive	inactive	inactive	inactive	inactive	inactive	inactive	inactive	inactive	inactive	inactive	inactive	inactive	inactive					
O=C1Oc2ccccc2N/C1=C\C(=O)c1cccc2ccccc12	inactive	inactive	inactive	inactive		inactive	inactive			inactive	inactive		inactive	inactive	inactive	inactive					zone of inhibition at 100 µg/mL (Trichoderma reesei [5]): 4 mm; MIC (Aspergillus niger [8]; ATCC 9029, 24 h): 100 µg/mL (≈ 317 µM); zone of inhibition at 100 µg/mL (Aspergillus niger [9]): 4 mm; MIC (Trichoderma reesei [12]; ATCC 13631, 24 h): 100 µg/mL (≈ 317 µM)
Cc1ccc2c(c1)N/C(=C\C(=O)c1ccc(C3CCCCC3)cc1)C(=O)O2	inactive	inactive	inactive	inactive	inactive	inactive			inactive	inactive	inactive	inactive		inactive	inactive	inactive					MIC (Fusarium oxysporum [7]; ATCC 62506, 24 h): 50 µg/mL (≈ 138 µM); MIC (Aspergillus niger [8]; ATCC 9029, 24 h): 100 µg/mL (≈ 277 µM); zone of inhibition at 100 µg/mL (Fusarium oxysporum [13]): 12 mm
O=C1Oc2ccc([N+](=O)[O-])cc2N/C1=C\C(=O)c1cccc2ccccc12					inactive	inactive		inactive	inactive	inactive		inactive		inactive	inactive		10	100 (≈ 278 µM)	100 (≈ 278 µM)	4	MIC (Bacillus subtilis [3]; MTCC 10619, 24 h): 100 µg/mL (≈ 278 µM); MIC (Fusarium oxysporum [7]; ATCC 62506, 24 h): 50 µg/mL (≈ 139 µM); zone of inhibition at 100 µg/mL (Fusarium oxysporum [13]): 10 mm; zone of inhibition at 100 µg/mL (Bacillus subtilis [16]): 4 mm
O=C1Oc2cc([N+](=O)[O-])ccc2N/C1=C\C(=O)c1ccc(-c2ccccc2)cc1					inactive	inactive		inactive	inactive	inactive		inactive		inactive	inactive		12	25 (≈ 64.7 µM)	50 (≈ 129 µM)	10	MIC (Bacillus subtilis [3]; MTCC 10619, 24 h): 100 µg/mL (≈ 259 µM); MIC (Fusarium oxysporum [7]; ATCC 62506, 24 h): 25 µg/mL (≈ 64.7 µM); zone of inhibition at 100 µg/mL (Fusarium oxysporum [13]): 18 mm; zone of inhibition at 100 µg/mL (Bacillus subtilis [16]): 8 mm
Cc1ccc2c(c1)N/C(=C\C(=O)c1ccc(-c3ccccc3)cc1)C(=O)O2					inactive	inactive	inactive	inactive	inactive			inactive	inactive		inactive		20	25 (≈ 70.3 µM)	12.5 (≈ 35.2 µM)	18	MIC (Bacillus subtilis [3]; MTCC 10619, 24 h): 25 µg/mL (≈ 70.3 µM); zone of inhibition at 100 µg/mL (Staphylococcus aureus [10]): 11 mm; MIC (Staphylococcus aureus [14]; MTCC 3381, 24 h): 12.5 µg/mL (≈ 35.2 µM); zone of inhibition at 100 µg/mL (Bacillus subtilis [16]): 12 mm
Cc1ccc2c(c1)N/C(=C\C(=O)C1CC1)C(=O)O2			inactive		inactive	inactive	inactive	inactive	inactive			inactive	inactive		inactive	inactive	8	100 (≈ 411 µM)	100 (≈ 411 µM)	6	zone of inhibition at 100 µg/mL (Staphylococcus aureus [10]): 14 mm; MIC (Staphylococcus aureus [14]; MTCC 3381, 24 h): 12.5 µg/mL (≈ 51.4 µM)
